Biological target: T1, p38α MAPK insert (Homo sapiens, UniProt Q16539, C119S/C162S/S252C)
T1 construct: His-tag with PreScission Protease cleavage site (N); made in house; host or cells: E. coli BL21(DE3) Codon+RIL
Assay: FLiK direct binding assay, acrylodan-labeled p38α (S252C) MAPK insert / lipid binding site
Conditions: binding to p38α MAPK insert
Procedure: The human p38α kinase construct containing the mutations required for specific labeling (C119S/C162S/S252C) as well as wild type p38α were cloned into a pOPINF vector and transformed as an N-terminal His-tag construct with a PreScission Protease cleavage site into BL21(DE3) Codon+RIL E. coli. Protein expression, purification, fluorophore labeling and verification of mono-labeling of the kinase were performed essentially as described previously. Labeling of the mutant p38α protein with thiol-reactive acrylodan was carried out by adding a 1.5∶1 molar excess of the fluorophore (dissolved in DMSO) to the purified protein in 50 mM Hepes Buffer (pH 7.0). The mixture was allowed to react in the dark overnight at 4°C. Unreacted acrylodan was subsequently removed by three cycles of buffer exchange into FLiK Measurement Buffer (50 mM Hepes Buffer, pH 7.4+200 mM NaCl) using a 10k-MWCO Centricon. The protein was concentrated to ∼200 μM, aliquoted and frozen at −80°C. Mono-labeling of the protein was verified by ESI-MS as described previously, [24].
Characterization of the fluorescence response of MAP insert-labeled p38α was carried out as described previously for p38α labeled on the activation loop. […] Briefly, a polystyrene cuvette containing a suspension of 50 nM acrylodan-labeled p38α in FLiK Buffer was excited at 386 nm and emission spectra were measured in the absence and presence of increasing concentrations of 1b. The compound was dissolved in 100% DMSO and delivered in sequential small doses to a single sample. […] Ratiometric fluorescence readouts are advantageous in that they provide an internal correction for small errors in sample volume which can affect signal intensity. All measurements of the cuvettes were made with a JASCO FP-6500 fluorescence spectrophotometer (JASCO GmbH, Germany).
The assay was adapted to high-throughput screening formats which enabled KD values to be determined in black small volume assay plates. Briefly, a dilution series of each compound was first prepared in 100% DMSO at 20X the desired final concentration and 1 μL was transferred to the assay plate. Compounds were then mixed with 19 µL of FLiK Buffer (supplemented with 0.01% Triton X-100) containing acrylodan-labeled p38α (100 nM). The final concentration of compound in the dilution series ranged from 0–50 μM (5% v/v DMSO final). Plates were covered with an adhesive aluminum foil and incubated for 30 min at RT prior to measurement of emission intensities at 470 and 520 nm using a Tecan Safire^2 plate reader. […] Binding curves were plotted using the ratio R = I520/I470 to determine the KD.

[1] = ratiometric acrylodan emission, each concentration in triplicate

T1 sequence (Q16539 whole entry C119S/C162S/S252C): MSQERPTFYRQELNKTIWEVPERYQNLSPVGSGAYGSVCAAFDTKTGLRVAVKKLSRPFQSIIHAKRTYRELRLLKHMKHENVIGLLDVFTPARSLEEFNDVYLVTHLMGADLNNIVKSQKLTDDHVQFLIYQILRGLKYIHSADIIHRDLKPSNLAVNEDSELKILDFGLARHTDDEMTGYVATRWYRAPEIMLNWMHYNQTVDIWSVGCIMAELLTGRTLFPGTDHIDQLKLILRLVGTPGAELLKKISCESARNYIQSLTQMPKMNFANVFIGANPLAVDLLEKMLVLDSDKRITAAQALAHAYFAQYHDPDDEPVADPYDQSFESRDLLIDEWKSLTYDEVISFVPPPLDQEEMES

Molecule Nc1ccc2c(NC3CC3)nc(-c3ccncc3)nc2c1 [5b, N^4-Cyclopropyl-2-(4-pyridinyl)-4,7-quinazolinediamine] has a Kd [1] of over 50000 nM.
For Nc1ccc2c(NCC3CC3)nc(-c3ccccc3)nc2c1 [6b, N^4-(Cyclopropylmethyl)-2-phenyl-4,7-quinazolinediamine], the Kd [1] was 4700 ± 700 nM.
For O=[N+]([O-])c1ccc2c(NCCc3ccccc3)nc(-c3ccccc3)nc2c1 [8a, 7-Nitro-2-phenyl-N-(2-phenylethyl)-4-quinazolinamine], the Kd (value as printed in text) was 280 nM.
Work on O=[N+]([O-])c1ccc2c(NCc3ccccc3)nc(-c3ccncc3)nc2c1 [7c, N-Benzyl-7-nitro-2-(4-pyridinyl)-4-quinazolinamine] yielded a Kd [1] of 810 ± 100 nM.
Work on O=[N+]([O-])c1ccc2c(NCCc3ccccc3)nc(-c3ccncc3)nc2c1 [8c, 7-Nitro-N-(2-phenylethyl)-2-(4-pyridinyl)-4-quinazolinamine] yielded a Kd [1] of 1800 ± 300 nM.
Molecule Nc1ccc2c(NCCc3ccccc3)nc(-c3ccccc3)nc2c1 [8b, 2-Phenyl-N^4-(2-phenylethyl)-4,7-quinazolinediamine] has a Kd [1] of 1200 ± 300 nM.
O=[N+]([O-])c1ccc2c(NCC3CC3)nc(-c3ccccc3)nc2c1 [6a, N-(Cyclopropylmethyl)-7-nitro-2-phenyl-4-quinazolinamine] showed a Kd [1] of 460 ± 210 nM.
Nc1ccc2c(NCc3ccccc3)nc(-c3ccccc3)nc2c1 [7b, N^4-Benzyl-2-phenyl-4,7-quinazolinediamine] was tested, and the Kd [1] was 2200 ± 800 nM.
In the case of O=[N+]([O-])c1ccc2c(NC3CC3)nc(-c3ccccc3)nc2c1 [1a, N-Cyclopropyl-7-nitro-2-phenyl-4-quinazolinamine], the Kd [1] is reported as 1900 ± 200 nM.
With O=[N+]([O-])c1ccc2c(NC3CC3)nc(-c3ccncc3)nc2c1 [5a, N-Cyclopropyl-7-nitro-2-(4-pyridinyl)-4-quinazolinamine] the Kd [1] was over 10000 nM.
Molecule O=[N+]([O-])c1ccc2c(NCc3ccccc3)nc(-c3ccccc3)nc2c1 [7a, N-Benzyl-7-nitro-2-phenyl-4-quinazolinamine] has a Kd [1] of 320 ± 90 nM.
